# Data reported in patent US9914730B2, “Azaquinazoline inhibitors of Atypical protein Kinase C” (Ignyta, Inc., priority 2012, dated 2018).
# Counter-ions that a name gives are not always drawn.
# Target: T1, full-length human PKCι (Homo sapiens, UniProt P41743)
# T1 construct: Recombinant, full-length human PKCι expressed in Sf21 insect cells is also commercially available; purchased; host or cells: Sf21 insect cells
# T1 sequence (P41743 1-596): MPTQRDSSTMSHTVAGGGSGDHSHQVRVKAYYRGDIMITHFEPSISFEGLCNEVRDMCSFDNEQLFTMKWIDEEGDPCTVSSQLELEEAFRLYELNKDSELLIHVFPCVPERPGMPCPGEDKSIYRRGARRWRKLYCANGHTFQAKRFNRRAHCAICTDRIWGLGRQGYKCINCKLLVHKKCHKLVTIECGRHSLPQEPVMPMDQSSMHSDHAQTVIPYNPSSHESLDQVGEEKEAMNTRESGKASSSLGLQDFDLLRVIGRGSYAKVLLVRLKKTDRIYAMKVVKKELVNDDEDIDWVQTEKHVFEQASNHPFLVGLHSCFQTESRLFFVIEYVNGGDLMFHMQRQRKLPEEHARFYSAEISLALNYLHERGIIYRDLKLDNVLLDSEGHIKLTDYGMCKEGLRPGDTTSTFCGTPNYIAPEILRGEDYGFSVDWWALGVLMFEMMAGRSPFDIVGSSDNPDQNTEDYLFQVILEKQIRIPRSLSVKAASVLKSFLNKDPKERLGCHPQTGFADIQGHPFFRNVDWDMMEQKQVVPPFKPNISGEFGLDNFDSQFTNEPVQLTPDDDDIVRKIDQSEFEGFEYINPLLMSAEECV
# Test: PKCι IC50 IMAP assay, full-length PKCι at 150 μM ATP
# Format: biochemical
# Conditions: read-out: IC50 in IMAP assay against full length PKCi at 150 μM ATP
# In short: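 IMAP fluorescence polarisation (ex 485/em 530 nm) read-out; % inhibition set from no-compound (0%) and no-enzyme (100%) controls, IC50 from dose-response curve fit. Sf21-expressed full-length enzyme ~15 pM, 100 nM FAM peptide, ATP 150 μM (5× KM^APP), 60 min at RT.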
row,SMILES,IC50
1,"c1ccc(C2(c3cc4c(-c5nc(N6CCNCC6)c6c(C7CC7)cncc6n5)ccnc4[nH]3)CC2)cc1 [Example 1240, 5-Cyclopropyl-2-[2-(1-phenyl-cyclopropyl)-1H-pyrrolo[2,3-b]pyridin-4-yl]-4-piperazin-1-yl-pyrido[3,4-d]pyrimidine]",< 0.1 µM
2,"N#CC1CCN(c2nc(-c3ccnc4[nH]c(C(F)(F)F)cc34)nc3cncc(C4CC4)c23)CC1 [Example 1241, 1-[5-Cyclopropyl-2-(2-trifluoromethyl-1H-pyrrolo[2,3-b]pyridin-4-yl)-pyrido[3,4-d]pyrimidin-4-yl]-piperidine-4-carbonitrile]",0.1 to 1 µM
3,"OCC1CCN(c2nc(-c3ccnc4[nH]c(C(F)(F)F)cc34)nc3cncc(C4CC4)c23)CC1 [Example 1242, {1-[5-Cyclopropyl-2-(2-trifluoromethyl-1H-pyrrolo[2,3-b]pyridin-4-yl)-pyrido[3,4-d]pyrimidin-4-yl]-piperidin-4-yl}-methanol]",1 to 10 µM
4,"OCC1CN(c2nc(-c3ccnc4[nH]c(C(F)(F)F)cc34)nc3cncc(C4CC4)c23)C1 [Example 1243, {1-[5-Cyclopropyl-2-(2-tritluoromethyl-1H-pyrrolo[2,3-b]pyridin-4-yl)-pyrido[3,4-d]pyrimidin-4-yl]-azetidin-3-yl}-methanol]",1 to 10 µM
5,"O=S1(=O)CCN(c2nc(-c3ccnc4[nH]c(C(F)(F)F)cc34)nc3cncc(C4CC4)c23)CC1 [Example 1245, 5-Cyclopropyl-4-(1,1-dioxo-1λ^6-thiomorpholin-4-yl)-2-(2-trifluoromethyl-1H-pyrrolo[2,3-b]pyridin-4-yl)-pyrido[3,4-d]pyrimidine]",10 to 40 µM
6,"FC(F)(F)c1cc2c(-c3nc(N4CCSCC4)c4c(C5CC5)cncc4n3)ccnc2[nH]1 [Example 1246, 5-Cyclopropyl-4-thiomorpholin-4-yl-2-(2-trifluoromethyl-1H-pyrrolo[2,3-b]pyridin-4-yl)-pyrido[3,4-d]pyrimidine]",10 to 40 µM
7,"CC(C)(C)c1cc2c(-c3nc(N4CCC(O)CC4)c4c(C5CC5)cncc4n3)ccnc2[nH]1 [Example 1247, 1-[2-(2-tert-Butyl-1H-pyrrolo[2,3-b]pyridin-4-yl)-5-cyclopropyl-pyrido[3,4-d]pyrimidin-4-yl]-piperidin-4-ol]",< 0.1 µM
8,"CC(C)(C)c1cc2c(-c3nc(N4CCNC(=O)CC4)c4c(C5CC5)cncc4n3)ccnc2[nH]1 [Example 1249, 1-[2-(2-tert-Butyl-1H-pyrrolo[2,3-b]pyridin-4-yl)-5-cyclopropyl-pyrido[3,4-d]pyrimidin-4-yl]-[1,4]diazepan-5-one]",< 0.1 µM
9,"CC(C)(C)c1cc2c(-c3nc(N4CC[C@@H](O)C4)c4c(C5CC5)cncc4n3)ccnc2[nH]1 [Example 1250, (R)-1-[2-(2-tert-Butyl-1H-pyrrolo[2,3-b]pyridin-4-yl)-5-cyclopropyl-pyrido[3,4-d]pyrimidin-4-yl]-pyrrolidin-3-ol]",< 0.1 µM
10,"CC1(C)CN(c2nc(-c3ccnc4[nH]c(C(F)(F)F)cc34)nc3cncc(C4CC4)c23)CCN1 [Example 1251, 5-Cyclopropyl-4-(3,3-dimethyl-piperazin-1-yl)-2-(2-trifluoromethyl-1H-pyrrolo[2,3-b]pyridin-4-yl)-pyrido[3,4-d]pyrimidine]",< 0.1 µM
11,"C[C@H]1CN(c2nc(-c3ccnc4[nH]c(C(C)(C)C)cc34)nc3cncc(C4CC4)c23)CCN1 [Example 2001, 2-(2-tert-Butyl-1H-pyrrolo[2,3-b]pyridin-4-yl)-5-cyclopropyl-4-((S)-3-methyl-piperazin-1-yl)-pyrido[3,4-d]pyrimidine]",< 0.1 µM
12,"CC1(C)CN(c2nc(-c3ccnc4[nH]c(C(C)(C)C)cc34)nc3cncc(C4CC4)c23)CCN1 [Example 2002, 2-(2-tert-Butyl-1H-pyrrolo[2,3-b]pyridin-4-yl)-5-cyclopropyl-4-(3,3-dimethyl-piperazin-1-yl)-pyrido[3,4-d]pyrimidine]",< 0.1 µM
13,"CN(C)C(=O)c1ccc(Nc2cc(-c3nc(N4CCNCC4)c4c(C5CC5)cncc4n3)ccn2)cc1 [Example 2003, 4-[4-(5-Cyclopropyl-4-piperazin-1-yl-pyrido[3,4-d]pyrimidin-2-yl)-pyridin-2-ylamino]-N,N-dimethyl-benzamide]",< 0.1 µM
14,"C[C@@H](Nc1cc(-c2nc(N3CCNC(C)(C)C3)c3c(C4CC4)cncc3n2)ccn1)C1CC1 [Example 2006, {4-[5-Cyclopropyl-4-(3,3-dimethyl-piperazin-1-yl)-pyrido[3,4-d]pyrimidin-2-yl]-pyridin-2-yl}-((R)-1-cyclopropyl-ethyl)-amine]",< 0.1 µM
15,"C[C@H]1CN(c2nc(-c3ccnc4[nH]c(C(C)(C)C)cc34)nc3cncc(C4CCC4)c23)CCN1 [Example 2008, 2-(2-tert-Butyl-1H-pyrrolo[2,3-b]pyridin-4-yl)-5-cyclobutyl-4-((S)-3-methyl-piperazin-1-yl)-pyrido[3,4-d]pyrimidine]",< 0.1 µM
16,"Fc1cc(F)nc(Nc2cc(-c3nc(N4CCNCC4)c4c(C5CCC5)cncc4n3)ccn2)c1 [Example 2011, [4-(5-Cyclobutyl-4-piperazin-1-yl-pyrido[3,4-d]pyrimidin-2-yl)-pyridin-2-yl]-(4,6-difluoro-pyridin-2-yl)-amine]",< 0.1 µM
17,"Fc1cc(C2CCC2)cnc1Nc1cc(-c2nc(N3CCNCC3)c3c(C4CC4)cncc3n2)ccn1 [Example 2013, (5-Cyclobutyl-3-fluoro-pyridin-2-yl)-[4-(5-cyclopropyl-4-piperazin-1-yl-pyrido[3,4-d]pyrimidin-2-yl)-pyridin-2-yl]-amine]",< 0.1 µM

# Results, then the compound that gave them:
row,IC50,SMILES
1,< 0.1 µM,"OC1CCN(c2nc(-c3ccnc4[nH]c(C5(c6ccccc6)CC5)cc34)nc3cncc(C4CC4)c23)CC1 [Example 1244, 1-{5-Cyclopropyl-2-[2-(1-phenyl-cyclopropyl)-1H-pyrrolo[2,3-b]pyridin-4-yl]-pyrido[3,4-d]pyrimidin-4-yl}-piperidin-4-ol]"
2,10 to 40 µM,"FC(F)(F)c1cc2c(-c3nc(N4CCC4)c4c(C5CC5)cncc4n3)ccnc2[nH]1 [Example 1248, 4-Azetidin-1-yl-5-cyclopropyl-2-(2-trifluoromethyl-1H-pyrrolo[2,3-b]pyridin-4-yl)-pyrido[3,4-d]pyrimidine]"
3,< 0.1 µM,"c1cc(-c2nc(N3CCNCC3)c3c(C4CC4)cncc3n2)c2c(n1)NC1(CCCCC1)C2 [Example 1252, 4-(5-cyclopropyl-4-piperazin-1-yl-pyrido[3,4-d]pyrimidin-2-yl)spiro[1,3-dihydropyrrolo[2,3-b]pyridine-2,1′-cyclohexane]]"
4,< 0.1 µM,"c1ccc2c(c1)[nH]c1nccc(-c3nc(N4CCNCC4)c4c(C5CC5)cncc4n3)c12 [Example 1253, 4-(5-Cyclopropyl-4-piperazin-1-yl-pyrido[3,4-d]pyrimidin-2-yl)-9H-pyrido[2,3-b]indole trifluoroacetic acid salt]"
5,0.1 to 1 µM,"OC1CCN(c2nc(-c3ccnc4[nH]c5ccccc5c34)nc3cncc(C4CC4)c23)CC1 [Example 1254, 1-[5-cyclopropyl-2-(9H-pyrido[2,3-b]indol-4-yl)-pyrido[3,4-d]pyrimidin-4-yl]-piperidin-4-ol trifluoroacetic acid salt]"
6,< 0.1 µM,"CC1(C)CN(c2nc(-c3ccnc4[nH]c5ccccc5c34)nc3cncc(C4CC4)c23)CCN1 [Example 1255, 4-[5-Cyclopropyl-4-(3,3-dimethyl-piperazin-1-yl)-pyrido[3,4-d]pyrimidin-2-yl]-9H-pyrido[2,3-b]indole trifluoroacetic acid salt]"
7,< 0.1 µM,"C[C@H]1CN(c2nc(-c3ccnc(Nc4nc(F)cc(F)c4F)c3)nc3cncc(C4CC4)c23)CCN1 [Example 2004, {4-[5-Cyclopropyl-4-((S)-3-methyl-piperazin-1-yl)-pyrido[3,4-d]pyrimidin-2-yl]-pyridin-2-yl}-(3,4,6-trifluoro-pyridin-2-yl)-amine]"
8,< 0.1 µM,"C[C@@H](Nc1cc(-c2nc(N3CCNC(C)(C)C3)c3c(C4CC4)cncc3n2)ccn1)c1ccccc1 [Example 2007, {4-[5-Cyclopropyl-4-(3,3-dimethyl-piperazin-1-yl)-pyrido[3,4-d]pyrimidin-2-yl]-pyridin-2-yl}-((R)-1-phenyl-ethyl)-amine]"
9,< 0.1 µM,"Fc1ccccc1C1(c2cc3c(-c4nc(N5CCNCC5)c5c(C6CC6)cncc5n4)ccnc3[nH]2)CC1 [Example 2009, 5-Cyclopropyl-2-{2-[1-(2-fluoro-phenyl)-cyclopropyl]-1H-pyrrolo[2,3-b]pyridin-4-yl}-4-piperazin-1-yl-pyrido[3,4-d]pyrimidine]"
10,< 0.1 µM,"CC(C)(C)c1cc2c(-c3nc(N4CCNCC4)c4c(C5CCC5)cncc4n3)ccnc2[nH]1 [Example 2010, 2-(2-tert-Butyl-1H-pyrrolo[2,3-b]pyridin-4-yl)-5-cyclobutyl-4-piperazin-1-yl-pyrido[3,4-d]pyrimidine]"
11,< 0.1 µM,"c1cc(-c2nc(N3CCNCC3)c3c(C4CC4)cncc3n2)cc(Nc2nc3ccc(C4CC4)cn3n2)n1 [Example 2012, [4-(5-Cyclopropyl-4-piperazin-1-yl-pyrido[3,4-d]pyrimidin-2-yl)-pyridin-2-yl]-(6-cyclopropyl-[1,2,4]triazolo[1,5-a]pyridin-2-yl)-amine]"
